What is called inhibition is the change of the read-out against control, counted positive when it falls.

Assay [1] concerns the target T1, human B1R receptor (hB1R) (Homo sapiens, UniProt P46663).
T1 construct: expressed in transfected cells; host or cells: CHO K1 cells, stably transfected
T1 sequence (P46663 1-353): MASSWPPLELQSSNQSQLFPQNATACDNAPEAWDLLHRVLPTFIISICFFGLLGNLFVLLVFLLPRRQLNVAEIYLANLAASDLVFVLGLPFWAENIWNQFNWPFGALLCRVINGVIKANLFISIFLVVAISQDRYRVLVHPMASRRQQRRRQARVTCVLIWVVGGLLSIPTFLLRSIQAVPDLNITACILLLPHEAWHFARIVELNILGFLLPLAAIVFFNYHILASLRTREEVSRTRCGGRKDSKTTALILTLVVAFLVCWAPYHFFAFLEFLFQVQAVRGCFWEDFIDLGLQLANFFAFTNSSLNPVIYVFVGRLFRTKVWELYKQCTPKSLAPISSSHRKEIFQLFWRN
Put plainly: FLIPR Ca2+ functional study on bradykinin receptor 1, hB1R cells (CHO K1). Particulars: CHO-K1, 10 μM test substance; CHO K1 cells with human B1R; agonist Lys-Des-Arg9-bradykinin at EC80; read-out: B1R antagonism, human [10 μM] % inhibition. Type of assay: cell-based. As to the method: (§1) The agonistic or antagonistic activity of substances can be quantified on the bradykinin receptor 1 (B1R) of the species human and rat using ectopically expressing cell lines (CHO K1 cells) and with the aid of a Ca^2+-sensitive dye (Fluo-4) using a fluorescent imaging plate reader (FLIPR). The indication in % activation is based on the Ca^2+ signal after addition of Lys-Des-Arg^9-bradykinin (0.5 nM) or Des-Arg^9-bradykinin (100 nM). Antagonists lead to suppression of the Ca^2+ influx after the addition of the agonist. % Inhibition compared with the maximum achievable inhibition is indicated.
(§2) The agonistic or antagonistic activity of substances can be determined on the bradykinin receptor 1 (B1R) of the species human and rat using the following assay. According to this assay, the Ca^2+ influx through the channel is quantified with the aid of a Ca^2+-sensitive dye (Fluo-4 type, Molecular Probes Europe BV, Leiden, Netherlands) using a Fluorescent Imaging Plate Reader (FLIPR, Molecular Devices, Sunnyvale, USA).
(§3) Chinese hamster ovary cells (CHO K1 cells) which have been stably transfected with the human B1R gene (hB1R cells) or with the B1R gene of the rat (rB1R cells) are used. For functional studies, the cells are plated out on black 96-well plates having a clear base (BD Biosciences, Heidelberg, Germany or Greiner, Frickenhausen, Germany) in a density of 20,000-35,000 cells/well. The cells are left overnight at 37° C. and with 5% CO2 in culture medium (hB1R cells: Nutrient Mixture Ham's F12, Gibco Invitrogen GmbH, Karlsruhe, Germany or DMEM, Sigma-Aldrich, Taufkirchen, Germany; rB1R cells: D-MEM/F12, Gibco Invitrogen GmbH, Karlsruhe, Germany), with 10 vol. % FBS (fetal bovine serum, Gibco Invitrogen GmbH, Karlsruhe, Germany or PAN Biotech GmbH, Aidenbach, Germany). On the following day, the cells are loaded for 60 minutes at 37° C. with 2.13 μM Fluo-4 (Molecular Probes Europe BV, Leiden, Netherlands) in HBSS buffer (Hank's buffered saline solution, Gibco Invitrogen GmbH, Karlsruhe, Germany) […] (Sigma-Aldrich, Taufkirchen, Germany) and 10 mM HEPES (Sigma-Aldrich, Taufkirchen, Germany). The plates are then washed twice with HBSS buffer, and HBSS buffer additionally containing 0.1% BSA (bovine serum albumin; Sigma-Aldrich, Taufkirchen, Germany), 5.6 mM glucose and 0.05% gelatin (Merck KGaA, Darmstadt, Germany) is added to the plates. After incubation for a further 20 minutes at room temperature, the plates are inserted into the FLIPR for Ca^2+ measurement. Alternatively, washing is carried out with buffer A (15 mM HEPES, 80 mM NaCl, 5 mM KCl, 1.2 mM CaCl2, 0.7 mM MgSO4, 2 g/l glucose, 2.5 mM probenecid) followed by loading with buffer A with added 2.5 μM Fluo-4 and 0.025% Pluronic F127 (Sigma-Aldrich, Taufkirchen, Germany). The cells are then washed twice with buffer A and incubated for 30 minutes at room temperature with buffer A additionally containing 0.05% BSA and 0.05% gelatin and are then inserted into the FLIPR for Ca^2+ measurement. The Ca^2+-dependent fluorescence is measured before and after the addition of substances (λex=488 nm, λem=540 nm). Quantification is carried out by measuring the highest fluorescence intensity (FC, fluorescence counts) over time.
(§4) The FLIPR protocol consists of two substance additions. Test substances (10 μM) are first pipetted onto the cells and the Ca^2+ influx is compared with the control (hB1R: Lys-Des-Arg^9-bradykinin >=50 nM; rB1R: Des-Arg^9-bradykinin 10 μM). This gives the activation in %, based on the Ca^2+ signal after addition of Lys-Des-Arg^9-bradykinin (>=50 nM) or Des-Arg^9-bradykinin (10 μM). After 10-20 minutes' incubation, Lys-Des-Arg^9-bradykinin (hB1R) or Des-Arg^9-bradykinin (rB1R) is applied in the concentration of the EC80, and the influx of Ca^2+ is likewise determined. Antagonists lead to suppression of the Ca^2+ influx. The % inhibition compared with the maximum achievable inhibition is calculated. […]

For assay [2], the target named is T2, B1R receptor of the rat (rB1R) (Rattus norvegicus, UniProt P97583).
T2 construct: expressed in transfected cells; host or cells: CHO K1 cells, stably transfected
T2 sequence (P97583 1-337): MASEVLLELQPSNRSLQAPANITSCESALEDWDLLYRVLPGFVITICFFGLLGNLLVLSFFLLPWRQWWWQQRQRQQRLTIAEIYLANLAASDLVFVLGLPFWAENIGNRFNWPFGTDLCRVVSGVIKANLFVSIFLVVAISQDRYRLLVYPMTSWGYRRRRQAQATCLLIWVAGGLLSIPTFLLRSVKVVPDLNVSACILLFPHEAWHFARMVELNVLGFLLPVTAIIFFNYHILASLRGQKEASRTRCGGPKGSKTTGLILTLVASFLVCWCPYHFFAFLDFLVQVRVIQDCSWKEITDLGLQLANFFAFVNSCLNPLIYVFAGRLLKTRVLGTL
As to the kind of experiment: FLIPR Ca2+ functional study on bradykinin receptor 1, rB1R cells (CHO K1). Type of assay: cell-based. The following applies: 10 μM test substance; CHO K1 cells with rat B1R; agonist Des-Arg9-bradykinin at EC80; read-out: B1R antagonism, rat [10 μM] % inhibition. As to the method: as §1, §2, §3, §4

For the compound `COc1cc(C)c(S(=O)(=O)N2CCCc3ccc(CC(=O)N4CCC5(CCC(N6CCC6)CC5)CC4)cc32)c(C)c1` [Compound G-32, 1-(9-(Azetidin-1-yl)-3-azaspiro[5.5]undecan-3-yl)-2-(1-(4-methoxy-2,6-dimethylphenylsulfonyl)-1,2,3,4-tetrahydroquinolin-7-yl)ethanone], the figures for the inhibition at 10 µM in assay [1] and in assay [2] were 91% and 102%, respectively.

Turning to `COc1ccc(S(=O)(=O)N2CCc3ccc(C(=O)N4CCC5(CC4)CCN(c4ccncc4)CC5)cc3C2)c2ccccc12` [Compound G-48, (2-(4-Methoxynaphthalin-1-ylsulfonyl)-1,2,3,4-tetrahydroisoquinolin-7-yl)(9-(pyridin-4-yl)-3,9-diazaspiro[5.5]undecan-3-yl)methanone], the inhibition at 10 µM in assay [1] was found to be 73%; in assay [2], 95%.

Regarding `O=C(Cc1ccc2c(c1)N(S(=O)(=O)c1ccccc1C(F)(F)F)CCC2)N1CCC2(CC1)CCN(c1ccncc1)CC2` [Compound G-16, 1-(9-(Pyridin-4-yl)-3,9-diazaspiro[5.5]undecan-3-yl)-2-(1-(2-(trifluoromethyl)phenylsulfonyl)-1,2,3,4-tetrahydroquinolin-7-yl)ethanone], the inhibition at 10 µM in assay [1] is 98%; in assay [2], 100%.

`O=C(NCc1ccccc1Cl)N1CCc2ccc(C(=O)N3CCC4(CC3)CCN(c3ccncc3)CC4)cc2C1` [Compound G-45, N-(2-Chlorobenzyl)-7-(9-(pyridin-4-yl)-3,9-diazaspiro[5.5]undecane-3-carbonyl)-3,4-dihydroisoquinoline-2(1H)-carboxamide]: the inhibition at 10 µM in assay [1] and in assay [2] was 97% throughout.

For the compound `COc1cc(C)c(S(=O)(=O)N2CCCc3ccc(CC(=O)N4CCC5(CCC(Oc6ccncc6)CC5)CC4)cc32)c(C)c1` [Compound G-30, 2-(1-(4-Methoxy-2,6-dimethylphenylsulfonyl)-1,2,3,4-tetrahydroquinolin-7-yl)-1-(9-(pyridin-4-yloxy)-3-azaspiro[5.5]undecan-3-yl)ethanone], the inhibition at 10 µM in assay [1] turned out to be 46%; in assay [2], 98%.

As for `COc1cc(C)c(S(=O)(=O)N2CCCc3ccc(CC(=O)N4CCC5(CC4)CCN(c4ccncc4)CC5)nc32)c(C)c1` [Compound G-70, 2-[8-[(4-Methoxy-2,6-dimethyl-phenyl)sulfonyl]-5,6,7,8-tetrahydro-[1,8]naphthyridin-2-yl]-1-(9-pyridin-4-yl-3,9-diazaspiro[5.5]undecan-3-yl)-ethanone], the inhibition at 10 µM in assay [1] was 88%; in assay [2] it was 101%.

As for `O=C(c1cn2c(n1)CN(C(=O)c1ccc(Cl)s1)CC2)N1CCC2(CC1)CCN(c1ccncc1)CC2` [Compound G-71, [7-(5-Chloro-thiophene-2-carbonyl)-5,6,7,8-tetrahydro-imidazo[1,2-a]pyrazin-2-yl]-(9-pyridin-4-yl-3,9-diazaspiro[5.5]undecan-3-yl)-methanone], the inhibition at 10 µM in assay [1] was determined as 91%; in assay [2] it was 80%.

`Cc1cccc(Cl)c1S(=O)(=O)N1Cc2ccc(C(=O)N3CCC4(CC3)CCN(c3ccncc3)CC4)cc2C1` [Compound G-68, [2-[(2-Chloro-6-methyl-phenyl)sulfonyl]-2,3-dihydro-1H-isoindol-5-yl]-(9-pyridin-4-yl-3,9-diazaspiro[5.5]undecan-3-yl)-methanone]: the inhibition at 10 µM in assay [1] worked out at 90%; in assay [2], 81%.

In the case of `O=C(c1ccc2c(c1)CN(C(=O)C(c1ccccc1)c1ccccc1)CC2)N1CCC2(CC1)CCN(c1ccncc1)CC2` [Compound G-49, 2,2-Diphenyl-1-(7-(9-(pyridin-4-yl)-3,9-diazaspiro[5.5]undecane-3-carbonyl)-3,4-dihydroisoquinolin-2(1H)-yl)ethanone], the inhibition at 10 µM was 99% in assay [1] and 106% in assay [2].

Take `COc1cc(C)c(S(=O)(=O)N2CCCc3ccc(CC(=O)N4CCC5(CC4)CCN(c4ccncc4)CC5)cc32)c(C)c1` [Compound G-25, 2-(1-(4-Methoxy-2,6-dimethylphenylsulfonyl)-1,2,3,4-tetrahydroquinolin-7-yl)-1-(9-(pyridin-4-yl)-3,9-diazaspiro[5.5]undecan-3-yl)ethanone]: the inhibition at 10 µM was determined as 100% in assay [1] and 98% in assay [2].

Turning to `COc1cc(C)c(S(=O)(=O)N2CCCc3ccc(CC(=O)N4CCC5(CC4)CCN(c4ccncc4)C5)cc32)c(C)c1` [Compound G-09, 2-(1-(4-Methoxy-2,6-dimethylphenylsulfonyl)-1,2,3,4-tetrahydroquinolin-7-yl)-1-(2-(pyridin-4-yl)-2,8-diazaspiro[4.5]decan-8-yl)ethanone], the inhibition at 10 µM in assay [1] and in assay [2] was 96% each time.

For the compound `COc1cc(C)c(S(=O)(=O)N2CCCc3ccc(CC(=O)N4CCC5(CC4)CCN(C4CCC4)C5)cc32)c(C)c1` [Compound G-10, 1-(2-Cyclobutyl-2,8-diazaspiro[4.5]decan-8-yl)-2-(1-(4-methoxy-2,6-dimethylphenylsulfonyl)-1,2,3,4-tetrahydroquinolin-7-yl)ethanone], the inhibition at 10 µM in assay [1] worked out at 97%; in assay [2], 80%.

In the case of `COc1cc(C)c(S(=O)(=O)N2CCc3ccc(CC(=O)N4CCC5(CC4)CCN(c4ccncc4)CC5)cc3C2)c(C)c1` [Compound G-39, 2-(2-(4-Methoxy-2,6-dimethylphenylsulfonyl)-1,2,3,4-tetrahydroisoquinolin-7-yl)-1-(9-(pyridin-4-yl)-3,9-diazaspiro[5.5]undecan-3-yl)ethanone], the inhibition at 10 µM stood at 99% in assay [1] and 89% in assay [2].

Turning to `Cc1cccc(Cl)c1S(=O)(=O)N1CCc2cccc(C(=O)N3CCC4(CC3)CCN(c3ccncc3)CC4)c2C1` [Compound G-37, (2-(2-Chloro-6-methylphenylsulfonyl)-1,2,3,4-tetrahydroisoquinolin-8-yl)(9-(pyridin-4-yl)-3,9-diazaspiro[5.5]undecan-3-yl)methanone], the figures for the inhibition at 10 µM in assay [1] and in assay [2] were 99% and 90%, respectively.

For the origin of these results see patent publication US8357717B2, “Spiro group-containing amide compounds having bradykinin 1 receptor (B1R) activity” (Gruenenthal GmbH, priority 2009, dated 2013).
